Results: ChEMBL document CHEMBL2157886, “Synthesis and evaluation of ¹⁸F-labeled styryltriazole and resveratrol derivatives for β-amyloid plaque imaging” (J Med Chem, 2012)
Blank lines part the entries; values can stand above or below the compound they belong to.

Legend:
[1] = Binding affinity to amyloid beta (1-42) aggregates
[2] = tested on: Brain; test: Ratio of drug uptake in BALB/c mouse brain after 5 mins to 30 mins; assay type: ADME, tissue-based; details: in vivo
[3] = Displacement of [125I]TZDM from amyloid beta (1 to 42) aggregates after 3 hrs by gamma counting
[4] = Octanol-water partition coefficient, log P of the compound; assay type: physicochemical
[5] = tested on: Blood; test: Drug uptake in ICR mouse blood at 1.11 MBq, iv after 2 mins postinjection; assay type: ADME, organism-based; details: in vivo
[6] = tested on: Blood; test: Drug uptake in ICR mouse blood at 1.11 MBq, iv after 30 mins postinjection; assay type: ADME, organism-based; details: in vivo, 0.5 h
[7] = tested on: Blood; test: Drug uptake in ICR mouse blood at 1.11 MBq, iv after 60 mins postinjection; assay type: ADME, organism-based; details: in vivo, 1 h
[8] = tested on: Blood; test: Drug uptake in ICR mouse blood at 1.11 MBq, iv after 120 mins postinjection; assay type: ADME, organism-based; details: in vivo, 2 h
[9] = tested on: Heart; test: Drug uptake in ICR mouse heart at 1.11 MBq, iv after 2 mins postinjection; assay type: ADME, organism-based; details: in vivo
[10] = tested on: Heart; test: Drug uptake in ICR mouse heart at 1.11 MBq, iv after 30 mins postinjection; assay type: ADME, organism-based; details: in vivo, 0.5 h
[11] = tested on: Heart; test: Drug uptake in ICR mouse heart at 1.11 MBq, iv after 60 mins postinjection; assay type: ADME, organism-based; details: in vivo, 1 h
[12] = tested on: Heart; test: Drug uptake in ICR mouse heart at 1.11 MBq, iv after 120 mins postinjection; assay type: ADME, organism-based; details: in vivo, 2 h
[13] = tested on: Lung; test: Drug uptake in ICR mouse lung at 1.11 MBq, iv after 2 mins postinjection; assay type: ADME, organism-based; details: in vivo
[14] = tested on: Lung; test: Drug uptake in ICR mouse lung at 1.11 MBq, iv after 30 mins postinjection; assay type: ADME, organism-based; details: in vivo, 0.5 h
[15] = tested on: Lung; test: Drug uptake in ICR mouse lung at 1.11 MBq, iv after 60 mins postinjection; assay type: ADME, organism-based; details: in vivo, 1 h
[16] = tested on: Lung; test: Drug uptake in ICR mouse lung at 1.11 MBq, iv after 120 mins postinjection; assay type: ADME, organism-based; details: in vivo, 2 h
[17] = tested on: Liver; test: Drug uptake in ICR mouse liver at 1.11 MBq, iv after 2 mins postinjection; assay type: ADME, organism-based; details: in vivo
[18] = tested on: Liver; test: Drug uptake in ICR mouse liver at 1.11 MBq, iv after 30 mins postinjection; assay type: ADME, organism-based; details: in vivo, 0.5 h
[19] = tested on: Liver; test: Drug uptake in ICR mouse liver at 1.11 MBq, iv after 60 mins postinjection; assay type: ADME, organism-based; details: in vivo, 1 h
[20] = tested on: Liver; test: Drug uptake in ICR mouse liver at 1.11 MBq, iv after 120 mins postinjection; assay type: ADME, organism-based; details: in vivo, 2 h
[21] = tested on: Spleen; test: Drug uptake in ICR mouse spleen at 1.11 MBq, iv after 2 mins postinjection; assay type: ADME, organism-based; details: in vivo
[22] = tested on: Spleen; test: Drug uptake in ICR mouse spleen at 1.11 MBq, iv after 30 mins postinjection; assay type: ADME, organism-based; details: in vivo, 0.5 h
[23] = tested on: Spleen; test: Drug uptake in ICR mouse spleen at 1.11 MBq, iv after 60 mins postinjection; assay type: ADME, organism-based; details: in vivo, 1 h
[24] = tested on: Spleen; test: Drug uptake in ICR mouse spleen at 1.11 MBq, iv after 120 mins postinjection; assay type: ADME, organism-based; details: in vivo, 2 h
[25] = tested on: Kidney; test: Drug uptake in ICR mouse kidney at 1.11 MBq, iv after 2 mins postinjection; assay type: ADME, organism-based; details: in vivo
[26] = tested on: Kidney; test: Drug uptake in ICR mouse kidney at 1.11 MBq, iv after 30 mins postinjection; assay type: ADME, organism-based; details: in vivo, 0.5 h
[27] = tested on: Kidney; test: Drug uptake in ICR mouse kidney at 1.11 MBq, iv after 60 mins postinjection; assay type: ADME, organism-based; details: in vivo, 1 h
[28] = tested on: Kidney; test: Drug uptake in ICR mouse kidney at 1.11 MBq, iv after 120 mins postinjection; assay type: ADME, organism-based; details: in vivo, 2 h
[29] = tested on: Muscle tissue; test: Drug uptake in ICR mouse muscle at 1.11 MBq, iv after 2 mins postinjection; assay type: ADME, organism-based; details: in vivo
[30] = tested on: Muscle tissue; test: Drug uptake in ICR mouse muscle at 1.11 MBq, iv after 30 mins postinjection; assay type: ADME, organism-based; details: in vivo, 0.5 h
[31] = tested on: Muscle tissue; test: Drug uptake in ICR mouse muscle at 1.11 MBq, iv after 60 mins postinjection; assay type: ADME, organism-based; details: in vivo, 1 h
[32] = tested on: Muscle tissue; test: Drug uptake in ICR mouse muscle at 1.11 MBq, iv after 120 mins postinjection; assay type: ADME, organism-based; details: in vivo, 2 h
[33] = tested on: Femur; test: Drug uptake in ICR mouse femur at 1.11 MBq, iv after 2 mins postinjection; assay type: ADME, organism-based; details: in vivo
[34] = tested on: Femur; test: Drug uptake in ICR mouse femur at 1.11 MBq, iv after 30 mins postinjection; assay type: ADME, organism-based; details: in vivo, 0.5 h
[35] = tested on: Femur; test: Drug uptake in ICR mouse femur at 1.11 MBq, iv after 60 mins postinjection; assay type: ADME, organism-based; details: in vivo, 1 h
[36] = tested on: Femur; test: Drug uptake in ICR mouse femur at 1.11 MBq, iv after 120 mins postinjection; assay type: ADME, organism-based; details: in vivo, 2 h
[37] = tested on: Brain; test: Drug uptake in ICR mouse brain at 1.11 MBq, iv after 2 mins postinjection; assay type: ADME, organism-based; details: in vivo
[38] = tested on: Brain; test: Drug uptake in ICR mouse brain at 1.11 MBq, iv after 30 mins postinjection; assay type: ADME, organism-based; details: in vivo, 0.5 h
[39] = tested on: Brain; test: Drug uptake in ICR mouse brain at 1.11 MBq, iv after 60 mins postinjection; assay type: ADME, organism-based; details: in vivo, 1 h
[40] = tested on: Brain; test: Drug uptake in ICR mouse brain at 1.11 MBq, iv after 120 mins postinjection; assay type: ADME, organism-based; details: in vivo, 2 h
[41] = tested on: Brain; test: Ratio of drug uptake in mouse brain after 2 mins to 60 mins; assay type: ADME, tissue-based; details: in vivo
[42] = tested on: Brain; test: Ratio of drug uptake in mouse brain after 2 mins to 30 mins; assay type: ADME, tissue-based; details: in vivo
[43] = tested on: Brain; test: Drug uptake in mouse brain after 2 mins; assay type: ADME, tissue-based; details: in vivo
[44] = Partition coefficient, log P of the compound; assay type: physicochemical; details: octanol/water
[45] = tested on: Cynomolgus monkey; test: Drug uptake in cynomolgus monkey brain after 55 mins; assay type: ADME, organism-based, Macaca fascicularis; details: in vivo
[46] = tested on: Cynomolgus monkey; test: Drug uptake in cynomolgus monkey brain after 1.5 mins; assay type: ADME, organism-based, Macaca fascicularis; details: in vivo, 0.025 h

Compound: COc1cc(/C=C/c2ccc(F)cc2)cc(OC)c1
Ki [3]: 4.95 nM

Compound: CNc1ccc(-c2cn3c(n2)sc2cc(OCC[18F])ccc23)cc1
Ratio [2]: 5.6

Compound: COc1cc(/C=C/c2ccc(OCCC[18F])cc2)cc(OC)c1
logP [4]: 2.84
Drug uptake [5]: 2.08 % ID/g
Drug uptake [6]: 0.98 % ID/g
Drug uptake [7]: 0.43 % ID/g
Drug uptake [8]: 0.38 % ID/g
Drug uptake [9]: 7.22 % ID/g
Drug uptake [10]: 1.35 % ID/g
Drug uptake [11]: 0.56 % ID/g
Drug uptake [12]: 0.61 % ID/g
Drug uptake [13]: 8.17 % ID/g
Drug uptake [14]: 1.72 % ID/g
Drug uptake [15]: 1.08 % ID/g
Drug uptake [16]: 1.16 % ID/g
Drug uptake [17]: 14.35 % ID/g
Drug uptake [18]: 5.99 % ID/g
Drug uptake [19]: 2.47 % ID/g
Drug uptake [20]: 4.47 % ID/g
Drug uptake [21]: 3.15 % ID/g
Drug uptake [22]: 1.23 % ID/g
Drug uptake [23]: 0.84 % ID/g
Drug uptake [24]: 0.97 % ID/g
Drug uptake [25]: 10.46 % ID/g
Drug uptake [26]: 2.86 % ID/g
Drug uptake [27]: 2.76 % ID/g
Drug uptake [28]: 1.65 % ID/g
Drug uptake [29]: 3.67 % ID/g
Drug uptake [30]: 1.27 % ID/g
Drug uptake [31]: 0.74 % ID/g
Drug uptake [32]: 1.07 % ID/g
Drug uptake [33]: 1.88 % ID/g
Drug uptake [34]: 5.24 % ID/g
Drug uptake [35]: 9.73 % ID/g
Drug uptake [36]: 16.15 % ID/g
Drug uptake [37]: 3.26 % ID/g
Drug uptake [38]: 2.09 % ID/g
Drug uptake [39]: 1.13 % ID/g
Drug uptake [40]: 1 % ID/g
Ratio [41]: 2.9
Ratio [42]: 1.6

Compound: CN(C)c1ccc(/C=C/c2cn(CC[18F])nn2)cc1
logP [4]: 1.74
Drug uptake [5]: 3.35 % ID/g
Drug uptake [6]: 2.16 % ID/g
Drug uptake [7]: 1.27 % ID/g
Drug uptake [8]: 0.98 % ID/g
Drug uptake [9]: 3.8 % ID/g
Drug uptake [10]: 1.32 % ID/g
Drug uptake [11]: 0.81 % ID/g
Drug uptake [12]: 0.71 % ID/g
Drug uptake [13]: 5.73 % ID/g
Drug uptake [14]: 1.75 % ID/g
Drug uptake [15]: 1.04 % ID/g
Drug uptake [16]: 0.76 % ID/g
Drug uptake [17]: 12.5 % ID/g
Drug uptake [18]: 7.59 % ID/g
Drug uptake [19]: 3.47 % ID/g
Drug uptake [20]: 3.47 % ID/g
Drug uptake [21]: 2.36 % ID/g
Drug uptake [22]: 0.85 % ID/g
Drug uptake [23]: 0.6 % ID/g
Drug uptake [24]: 0.49 % ID/g
Drug uptake [25]: 7.32 % ID/g
Drug uptake [26]: 7.32 % ID/g
Drug uptake [27]: 3.7 % ID/g
Drug uptake [28]: 1.86 % ID/g
Drug uptake [29]: 2.44 % ID/g
Drug uptake [30]: 0.74 % ID/g
Drug uptake [31]: 0.51 % ID/g
Drug uptake [32]: 0.4 % ID/g
Drug uptake [33]: 1.49 % ID/g
Drug uptake [34]: 0.7 % ID/g
Drug uptake [35]: 0.94 % ID/g
Drug uptake [36]: 1.54 % ID/g
Drug uptake [37]: 5.38 % ID/g
Drug uptake [38]: 0.68 % ID/g
Drug uptake [39]: 0.52 % ID/g
Drug uptake [40]: 0.48 % ID/g
Ratio [41]: 10.3
Ratio [42]: 7.9

Compound: COc1cc(/C=C/c2ccc(OCCF)cc2)cc(OC)c1
Ki [3]: 0.74 nM

Compound: COc1cc(/C=C/c2ccc(OCCCF)cc2)cc(OC)c1
Ki [3]: 0.49 nM

Compound: CN(C)c1ccc(/C=C/c2cn(CCF)nn2)cc1
Ki [3]: 12.8 nM

Compound: Oc1cc(O)cc(/C=C/c2ccc(F)cc2)c1
Ki [3]: 39.7 nM

Compound: CNc1ccc(/C=C/c2ccc(OCCOCCOCC[18F])cc2)cc1 [FLORBETABEN F18]
Ki [1]: 2.22 nM
Drug uptake [43]: 7.77 % ID/g
Ratio [42]: 4.89
logP [44]: 2.41

Compound: CNc1ccc(/C=C/c2ccc(OCCOCCOCC[18F])nc2)cc1 [FLORBETAPIR F 18]
Ki [1]: 2.87 nM
Ratio [41]: 3.9
logP [44]: 2.41

Compound: CNc1ccc(-c2cc3cc(O)ccc3o2)c([18F])n1 [FLUTAFURANOL F 18]
Drug uptake [45]: 0.5 %ID
Drug uptake [46]: 5.2 %ID

Compound: CNc1ccc(-c2nc3ccc(O)cc3s2)cc1[18F] [FLUTEMETAMOL F 18]
Ki [1]: 0.74 nM

The remaining lines, values ahead:

Ki [1]: 1.9 nM
Compound: CN(C)c1ccc(-c2nc3ccc([125I])cc3s2)cc1

Ki [1]: 3.5 nM
Compound: CNc1ccc(-c2cn3c(n2)sc2cc(OC)ccc23)cc1

Ratio [2]: 9.1
Compound: COc1ccc2c(c1)sc1nc(-c3ccc(N[11CH3])cc3)cn12

Ki [1]: 19.7 nM
Compound: [11CH3]Nc1ccc(-c2nc3ccc(O)cc3s2)cn1

Ki [1]: 0.8 nM
Compound: CN(C)c1ccc(-c2nc3ccc([125I])cc3o2)cc1

Drug uptake [43]: 2.88 %ID
Compound: CN(C)c1ccc(-c2cn3cc([125I])ccc3n2)cc1
